From US20130230459A1, “RADIOLABELLED mGluR2 PET LIGANDS” (Janssen Pharmaceuticals, Inc., priority 2010, published 2013)

Target: T1, mGluR2 (Rattus norvegicus, UniProt P31421)
T1 construct: from tissue; host or cells: brain of living male Wistar rats (in vivo microPET)
Test: MicroPET imaging: baseline, blocking and chase experiments
Format: in vivo, Wistar rats
Conditions: for % reduction of SUV (total brain) due to chase: chase compound B 4 mg/kg i.v.; for average SUV (total brain) after chase: 4650-5250 sec p.i.; for character of tracer binding to mGluR2 in vivo: concluded from blocking/chase microPET experiments; for SUV (total brain) before chase: maximum SUV; for SUV (total brain) before chase / SUV (total brain) after chase: chase compound B 4 mg/kg i.v. 30 min after tracer; for SUV (total brain) after chase: minimum SUV
Method: Imaging experiments were performed on a Focus™ 220 microPET scanner (Concorde Microsystems, Knoxyille, Tenn., USA) using healthy male Wistar rats. During all scan sessions, animals were kept under gas anesthesia (2.5% isoflurane in O2 at 1 L/min flow rate).
Dynamic scans of 90 min were acquired. After reconstruction of the images (filtered back projection), they were spatially normalized to an in-house created [^11C]raclopride template of the rat brain in Paxinos coordinates. Automated and symmetric volumes of interest (VOIs) were generated for different brain regions (striatum, cortex, cerebellum, hippocampus, hypothalamus, thalamus, substantia nigra, nucleus accumbens and lateral globus pallidus) from which time-activity curves (TAC) were constructed for each individual scan, using PMOD software (v 3.1, PMOD Technologies Ltd.). The radioactivity concentration in the different brain regions was expressed as SUV as a function of time p.i. of the radiotracer by normalization for body weight of the animal and injected dose.
Rats were injected with 30-60 MBq of high specific activity formulation of [^11C]B-4, [^11C]B-2, [^11C]B-7, or [^11C]B-10 via the tail vein under isoflurane anesthesia (2.5% in O2 at 1 L/min flow rate).
For pretreatment and displacement experiments, compound A, compound B or ritanserin were dissolved and administered in a vehicle containing 20% (2-hydroxypropyl)-β-cyclodextrine and two equivalents hydrochloric acid. The ritanserin solution was protected from light.
A self-blocking study was done by subcutaneous (s.c.) administration of the authentic reference material (for [^11C]B-4) at ˜30 min prior to the radiotracer injection. Displacement studies were performed by i.v. injection of compound B at dose 4, 1, 0.3 and 0.1 mg/kg, compound A at dose 1 mg/kg or ritanserin at dose 0.3 mg/kg. All chase compounds were injected ˜30 min after radiotracer injection. A wash-out period of at least four days was maintained between the different pretreatment and displacement studies.
[^11C]B-4 was evaluated in vivo in three rats which were scanned dynamically for 90 min using μPET. The first rat was used for a baseline scan. The second rat was pretreated with authentic reference material B-4 via s.c. administration (dose 10 mg/kg) at 30 min prior to tracer injection. The third rat was used in a chase experiment and was injected i.v. with authentic reference material B-4 (dose 3 mg/kg) 30 min after tracer injection.
Two rats were injected with high specific activity tracer ([^11C]B-4, [^11C]B-2, [^11C]B-7, or [^11C]B-10) and scanned dynamically for 90 min. The first rat was scanned baseline, the second rat was injected i.v. with compound B (dose 4 mg/kg) 30 min after tracer injection. Table 16 gives an overview of the maximum and minimum SUV values in the chase experiment for the four studied tracers.
A chase experiment was performed for [^11C]B-2 with different doses of compound B (4, 1, 0.3, 0.1 mg/kg). The chase compound was injected i.v. 30 min after tracer injection. Table 17 gives an overview of the average SUV values before and after injection of the chase for the total brain.

T1 sequence (P31421 19-872): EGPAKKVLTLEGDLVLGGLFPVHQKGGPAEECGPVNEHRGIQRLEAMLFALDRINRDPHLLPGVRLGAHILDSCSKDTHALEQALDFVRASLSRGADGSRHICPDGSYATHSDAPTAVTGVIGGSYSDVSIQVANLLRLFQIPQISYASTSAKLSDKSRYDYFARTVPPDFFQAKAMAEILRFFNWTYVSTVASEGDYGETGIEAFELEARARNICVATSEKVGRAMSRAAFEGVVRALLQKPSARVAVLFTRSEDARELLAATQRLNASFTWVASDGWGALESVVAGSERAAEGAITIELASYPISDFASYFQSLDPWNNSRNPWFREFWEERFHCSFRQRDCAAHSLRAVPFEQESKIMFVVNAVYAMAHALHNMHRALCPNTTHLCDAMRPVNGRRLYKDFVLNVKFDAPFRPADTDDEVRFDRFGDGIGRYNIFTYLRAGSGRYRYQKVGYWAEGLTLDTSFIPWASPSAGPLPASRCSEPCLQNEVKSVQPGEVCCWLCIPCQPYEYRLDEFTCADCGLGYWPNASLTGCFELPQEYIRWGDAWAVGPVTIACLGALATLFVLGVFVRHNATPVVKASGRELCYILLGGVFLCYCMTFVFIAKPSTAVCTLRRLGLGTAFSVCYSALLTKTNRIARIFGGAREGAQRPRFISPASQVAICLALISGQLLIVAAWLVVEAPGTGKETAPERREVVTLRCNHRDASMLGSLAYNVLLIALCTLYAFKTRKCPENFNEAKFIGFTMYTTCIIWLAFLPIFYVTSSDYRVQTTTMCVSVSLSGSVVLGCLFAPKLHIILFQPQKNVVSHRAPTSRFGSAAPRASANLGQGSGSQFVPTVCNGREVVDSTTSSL

**Q.** For `[11CH3]Oc1c(F)ccc(F)c1C1CCN(c2ccn3c(CC4CC4)nnc3c2Cl)CC1` [[^11C]B-2, 8-chloro-3-(cyclopropylmethyl)-7-[4-(3,6-difluoro-2-[^11C]methoxyphenyl)-1-piperidinyl]-1,2,4-triazolo[4,3-a]pyridine], which “average SUV (total brain), baseline” value (baseline scan, 930-1650 sec p.i.) is on record?
**A.** The value was 1.26.

**Q.** What about the “% reduction of SUV (total brain) due to chase” value of the same compound?
**A.** Its value is 73%.

**Q.** What about the “% reduction of SUV (total brain)” value (compound B 0.1 mg/kg) of the same compound?
**A.** Its value is 50%.

**Q.** What about the “average SUV (total brain) before chase” value (compound B 0.1 mg/kg, 930-1650 sec p.i.) of the same compound?
**A.** The value was 1.35.

**Q.** And the “average SUV (total brain) after chase” value (compound B 0.1 mg/kg)?
**A.** The value was 0.67.

**Q.** What about the “% reduction of SUV (total brain)” value (compound B 0.3 mg/kg) of the same compound?
**A.** Its value is 64%.

**Q.** And the “average SUV (total brain) before chase” value (compound B 0.3 mg/kg, 930-1650 sec p.i.)?
**A.** The value was 2.15.

**Q.** And the “average SUV (total brain) after chase” value (compound B 0.3 mg/kg)?
**A.** Its value is 0.78.

**Q.** And the “% reduction of SUV (total brain)” value (compound B 1 mg/kg)?
**A.** Its value is 66%.

**Q.** And the “average SUV (total brain) before chase” value (compound B 1 mg/kg, 930-1650 sec p.i.)?
**A.** The value was 1.78.

**Q.** What about the “average SUV (total brain) after chase” value (compound B 1 mg/kg) of the same compound?
**A.** Its value is 0.61.

**Q.** And the “% reduction of SUV (total brain)” value (compound B 4 mg/kg)?
**A.** The value was 74%.

**Q.** And the “average SUV (total brain) before chase” value (compound B 4 mg/kg, 930-1650 sec p.i.)?
**A.** The value was 1.36.

**Q.** And the “average SUV (total brain) after chase” value (compound B 4 mg/kg)?
**A.** The value was 0.36.

**Q.** What about the “character of tracer binding to mGluR2 in vivo” value of the same compound?
**A.** The value was “binds reversible, specific and selective to mGluR2”.

**Q.** And the “SUV (total brain) before chase” value?
**A.** Its value is 1.4.

**Q.** What about the “SUV (total brain) after chase” value of the same compound?
**A.** Its value is 0.38.

**Q.** Which results are given for `[11CH3]Oc1ccc(F)cc1C1CCN(c2ccn3c(CC4CC4)nnc3c2Cl)CC1` [[^11C]B-4, 8-chloro-3-(cyclopropylmethyl)-7-[4-[5-fluoro-2-[^11C]methoxyphenyl]-1-piperidinyl]-1,2,4-triazolo[4,3-a]pyridine]?
**A.** effect of self-chase on brain radioactivity (B-4 3 mg/kg i.v. 30 min after tracer): significant displacement; effect of self-blocking on brain uptake (B-4 10 mg/kg s.c. 30 min prior to tracer): lower brain uptake and faster wash-out; time at which maximum radioactivity concentration in brain is reached (baseline scan): about 9 min p.i.; time until which maximum radioactivity concentration stays constant (baseline scan, followed by wash-out): about 27 min p.i.; % reduction of SUV (total brain) due to chase: 70%; character of tracer binding to mGluR2 in vivo: binds reversible and specific to mGluR2; SUV (total brain) before chase: 1.05; SUV (total brain) after chase: 0.32

**Q.** Which results are given for `[11CH3]Oc1ccc(F)c(F)c1C1CCN(c2ccn3c(CC4CC4)nnc3c2Cl)CC1` [[^11C]B-10, 8-chloro-3-(cyclopropylmethyl)-7-[4-[2,3-difluoro-6-[^11C]methoxyphenyl]-1-piperidinyl]-1,2,4-triazolo[4,3-a]pyridine]?
**A.** % reduction of SUV (total brain) due to chase: 58%; SUV (total brain) before chase: 1.2; SUV (total brain) after chase: 0.5

**Q.** Which results are given for `[11CH3]Oc1cc(F)cc(F)c1C1CCN(c2ccn3c(CC4CC4)nnc3c2Cl)CC1` [[^11C]B-7, 8-chloro-3-(cyclopropylmethyl)-7-[4-[2,4-difluoro-6-[^11C]methoxyphenyl]-1-piperidinyl]-1,2,4-triazolo[4,3-a]pyridine]?
**A.** % reduction of SUV (total brain) due to chase: 58%; SUV (total brain) before chase: 1.2; SUV (total brain) after chase: 0.5
